Reference: patent publication US20210403924A1, “Method for selecting cells based on CRISPR/Cas-mediated integration of a detectable tag to a target protein” (Hoffmann-La Roche Inc., priority 2018, published 2021)

Experiments:
Assay type in all cases: cell-based
human TUBA1B locus [1] = assay: Knock-in Strategy V3: eGFP knock-in at TUBA1B, CD4 pool sorting and hygromycin B selection, FACS screen of clones for FITC signal; conditions: HEK293A
Experimental: In the Knock-in Strategy V3, the Cas9 nuclease and the sgRNA were combined on a single plasmid. This additionally contained a CD4 marker for selection. The donor plasmid corresponded to that of the strategy V2. Thus, the double selection was carried out via hygromycin B for the donor plasmid, as well as for CD4 for the nuclease/gRNA plasmid.
In the Knock-in Strategy V3, the cells were transfected with the circular or linear donor plasmid and a pCas-Guide EF1α-CD4 plasmid. This plasmid, referred to as “all-in-one”, encodes the Cas9 nuclease, a gRNA and CD4. The selection was made in this strategy via hygromycin B for the donor plasmid, and with CD4 for the Cas9 nuclease and the gRNA. Three different pCas-Guide-EF1α-CD4 plasmids were used, each coding for one of the three gRNAs. […] About 48 hours after transfection, the cells were stained with an APC-conjugated anti-CD4 antibody. HEK293A wild-type cells natively express no CD4, so these cells defined the APC negative gate. Only cells that had taken up the pCas-Guide-EF1α-CD4 plasmid expressed CD4 on the cell surface, which was detectable by FACS via the elevated APC signal after staining with the antibody. […] The transfected cells are between 63% and 86% in the APC positive gate. Comparing the samples with linear and circular donor plasmid from each gRNA, it was possible to see that proportionally more APC and, thus, CD4 positive cells were detected in the samples with the circular donor plasmid. From each transfection approximately 5×10^5 CD4 positive cells were deposited as a cell pool using FACS sorting (FIG. 16).
The cells were cultured after pool sorting for 24 h in 6-well plates. Next, selection with hygromycin B was performed for the donor plasmid for 10 days. Subsequently, single cells from each transfection were deposited in four 96-well plates. Differences in the FITC signal between the wild-type and the transfected samples were evident in the enlarged view of the histograms. […] Gating on FITC-positive cells was therefore almost impossible. To the extent possible, viable single cells were deposited from the FITC-positive gate (FIG. 17).
Three weeks after single cell deposition, the first screening of the clones for the FITC signal followed and, thus, the presence of eGFP in the FACS. Previously, an average growth rate of 43% had been determined microscopically. A total of 952 clones were screened, of which 33 were identified as potentially positive clones. This corresponded to an efficiency of 3.4%. No clones could be identified in the three samples 1L, 3L and 3Z. Again, it was possible to see that the circular donor plasmid samples yielded more potentially positive clones than did samples with the linearized donor plasmid (Table 7).
In the knock-in V3, the pCas9-Guide-EF1α-CD4 plasmid contains a CD4 cassette as a selection marker. To select the CD4-positive cells, the cells were harvested 48 hours after transfection and washed twice with PBS. Next, the cells were resuspended in 250 μL FACS buffer and 5 μL α-CD4-Alexa 647 antibody added. This corresponded to a final antibody concentration of 1.5 μg/mL. After one hour of incubation on ice in the dark, the cells were washed three times with FACS buffer and then measured. For pool sorting, approximately 1.5×10^5 CD4-positive cells per sample were sorted into a 15 mL Falcon in which 5 mL of complete medium had already been placed. Subsequently, the cells were centrifuged for 5 min. at 300 g, resuspended in 3 mL fresh complete medium and seeded into a 6-well plate. After 24 hours the cells were again adherent and could be selected with hygromycin B on the donor plasmid. Once the selected cells had matured, the single-cell deposition in the 96-well format was again carried out.
The methodology was used primarily for the screening of the generated clones. For this purpose, the medium was completely removed from the 96-well plates, the cells were detached with 25 μL Accutase and resuspended with 40 μL FACS buffer. […]

human TUBA1B locus [2] = assay: Knock-in Strategy V1: eGFP knock-in at TUBA1B, puromycin single selection, FACS screen of clones for FITC signal; conditions: HEK293A
Experimental: In the Knock-in Strategy V1, a Cas9-encoding plasmid comprising a puromycin-resistance cassette was co-transfected with a circular donor plasmid without a selection marker as well as specific synthetic crRNA and tracrRNA. The selection was carried out exclusively with puromycin on the Cas9-encoding plasmid.
In the first knock-in strategy, the cells were transfected with the Cas9-PuroR plasmid, the circular donor plasmid, as well as specific, synthetic crRNA and tracrRNA. The selection was made exclusively on the Cas9 plasmid with puromycin for 10 days. Thereafter, single cells of the cells transfected with crRNA1 (SEQ ID NO: 07) or crRNA2 (SEQ ID NO: 08), respectively, were deposited in ten 96-well plates. […] The increased FITC signal can be attributed to the expression of eGFP, which is only possible if the eGFP sequence from the donor plasmid has been introduced in-frame into a translated region in the genome, since the start codon is missing.
The growth rate of the deposited single cells was determined microscopically after 3 weeks, and totaled 63%. Subsequently, the cells by FACS were analyzed for their FITC signal (results in Table 1).
(§1) Using FACS sorting, the transfected and partially already selected cells were sorted. These were harvested, washed with PBS and adjusted to a cell number of 1×10^6 cells/mL in FACS buffer. After the desired cell population had been gated and all settings made on the device for sorting, the selected cells could be […]. The single cell deposit was performed in 96-well format. The plates were stored with 200 μL of medium per well at 37° C. in order to temper the medium and to keep the cell's stress as low as possible. Each knock-in trial involved deposition in between 20 and 24 plates. The cells then needed about 3 weeks in the incubator at 37° C. and 5% CO2 for growth. All plates were analyzed microscopically to determine the growth rate and the clones were then examined for eGFP expression.
(§2) The methodology was used primarily for the screening of the generated clones. For this purpose, the medium was completely removed from the 96-well plates, the cells were detached with 25 μL Accutase and resuspended with 40 μL FACS buffer. 40 μL of cell suspension was transferred to a 96-well conical-bottomed plate and measured directly on the FACS Canto II from BD. The eGFP signals of the clones were always referenced with HEK293A wild-type cells. The evaluation was done with the FlowJo v10.0.7 software. Potentially positive clones with a distinct eGFP signal were expanded and further characterized.

human TUBA1B locus [3] = assay: Knock-in Strategy V2: eGFP knock-in at TUBA1B, puromycin and hygromycin B double selection, FACS screen of clones for FITC signal; conditions: for Efficiency (potentially positive clones / clones examined) / Number of potential clones (total number of examined clones in parentheses): HEK293A
Experimental: In the Knock-in Strategy V2, a Cas9-encoding plasmid comprising a puromycin-resistance cassette was co-transfected with a circular donor plasmid with a hygromycin B-resistance cassette as well as specific, synthetic crRNA and tracrRNA. The selection was carried out as double selection with hygromycin B for the donor plasmid and puromycin for the Cas9-encoding plasmid.
In the Knock-in Strategy V2, the cells were transfected with the identical crRNAs and tracrRNAs, as well as the Cas9-PuroR plasmid as in the Knock-in Strategy V1. Each of the three crRNAs (SEQ ID NO: 07-09) was combined with the linearized or circular donor plasmid with the hygromycin B-resistance cassette. Selection was performed via puromycin for the Cas9 plasmid and hygromycin B for the donor plasmid for a total of 10 days. Four 96-well plates with FITC-positive, viable single cells were subsequently deposited from each transfection. Differences in the FITC signal between the wild-type and the transfected cells were evident in the enlarged view of the histograms. The proportion of FITC-positive cells was between 0.4% and 3.8%. […] The most intense signal was found in the sample of crRNA3 and the circular donor plasmid (FIG. 13).
After a three-week incubation in the incubator, the growth rate of the deposited single cells was determined microscopically. It averaged 34.3%. All grown clones were analyzed by FACS for their FITC signal. An eGFP expression in the cells leads to the detection of an increased FITC signal compared to the wild-type, i.e. non-transfected cells. A total of 118 potentially positive clones were identified from a total of 496 analyzed clones. This corresponded to an overall efficiency of […]. The proportion of potentially positive clones among the samples containing the circular donor plasmid was 33.3%, more than twice as high as that for the linearized donor plasmid at 15.3% (Table 4).
as §1, §2

[4] = Plates from gate P3, circular donor plasmid
[5] = Plates from gate P4 (FITC-positive), circular donor plasmid

| Substance | Efficiency (potential clones / clones examined) (human TUBA1B locus [1]; Circular donor plasmid) | Number of potential clones (total number of examined clones in parentheses) (human TUBA1B locus [1]; Circular donor plasmid) | Efficiency (potential clones / clones examined) (human TUBA1B locus [1]; Linear donor plasmid) | Number of potential clones (total number of examined clones in parentheses) (human TUBA1B locus [1]; Linear donor plasmid) | Efficiency (potentially positive clones / clones examined) (human TUBA1B locus [2]; [4]) | Number of potentially positive clones (total number of examined clones in parentheses) (human TUBA1B locus [2]; [4]) | Efficiency (potentially positive clones / clones examined) (human TUBA1B locus [2]; [5]) | Number of potentially positive clones (total number of examined clones in parentheses) (human TUBA1B locus [2]; [5]) | Efficiency (potentially positive clones / clones examined) (human TUBA1B locus [3]; Circular donor plasmid) | Number of potential clones (total number of examined clones in parentheses) (human TUBA1B locus [3]; Circular donor plasmid) | Efficiency (potentially positive clones / clones examined) (human TUBA1B locus [3]; Linear donor plasmid) | Number of potential clones (total number of examined clones in parentheses) (human TUBA1B locus [3]; Linear donor plasmid) | cells of the clones in the FITC-positive range (human TUBA1B locus [3]; clones with circular donor plasmid, after long-term cultivation, FACS) |
| --- | --- | --- | --- | --- | --- | --- | --- | --- | --- | --- | --- | --- | --- |
| gRNA1: TUBA1B-specific gRNA encoded on the pCas-Guide-EF1α-CD4 all-in-one plasmid, oligos SEQ ID NO: 01 and 02 (DNA 1 GATCGGAGTGCATCTCCATCCACGTG; DNA 2 AAAACACGTGGATGGAGATGCACTCC; the letters are possibly those of the target site) | 19.4% | 12 (62) | 0% | 0 (195) |  |  |  |  |  |  |  |  |  |
| gRNA2: TUBA1B-specific gRNA encoded on the pCas-Guide-EF1α-CD4 all-in-one plasmid, oligos SEQ ID NO: 03 and 04 (DNA 1 GATCGGGCCAGGCTGGTGTCCAGATG; DNA 2 AAAACATCTGGACACCAGCCTGGCCC; the letters are possibly those of the target site) | 6.5% | 14 (214) | 3.6% | 7 (195) |  |  |  |  |  |  |  |  |  |
| gRNA3: TUBA1B-specific gRNA encoded on the pCas-Guide-EF1α-CD4 all-in-one plasmid, oligos SEQ ID NO: 05 and 06 (DNA 1 GATCGGAGCTCTACTGCCTGGAACAG; DNA 2 AAAACTGTTCCAGGCAGTAGAGCTCC; the letters are possibly those of the target site) | 0% | 0 (105) | 0% | 0 (212) |  |  |  |  |  |  |  |  |  |
| crRNA2: TUBA1B-specific synthetic crRNA (Dharmacon), SEQ ID NO: 08, GGCCAGGCTGGTGTCCAGAT (synthetic crRNA bought from a supplier, chemistry not given here) |  |  |  |  | 0.25% | 1 (399) | 14.7% | 9 (64) | 1% | 1 (98) | 0% | 0 (81) |  |
| crRNA1: TUBA1B-specific synthetic crRNA (Dharmacon), SEQ ID NO: 07, GAGTGCATCTCCATCCACGT (synthetic crRNA bought from a supplier, chemistry not given here) |  |  |  |  | 0.44% | 2 (452) | 16.1% | 11 (68) | 53.3% | 40 (75) | 7.2% | 7 (97) |  |
| crRNA3: TUBA1B-specific synthetic crRNA (Dharmacon), SEQ ID NO: 09, GAGCTCTACTGCCTGGAACA (synthetic crRNA bought from a supplier, chemistry not given here) |  |  |  |  |  |  |  |  | 60.7% | 37 (61) | 39.3% | 33 (84) | over 87% |
